How the values were obtained:
[1] = design: method as in PMID 32599930; conditions: ref [9]; cited from earlier work
[2] = test system: H1975 (L858R/T790M double mutations EGFR); assay: Cellular uptake and blocking study, H1975; format: cell-based, human
Description: H1975 (1 × 10^5 cells/well), H441 (1 × 10^5 cells/well), and H3255 (2 × 10^5 cells/well) NSCLC cells were cultured in 6 well plates. Cells were incubated in medium with 10% FBS and 100 IU/mL penicillin–streptomycin at 37 °C in a humidified atmosphere with 5% CO2 for 24 h. […] The cells were dissolved by a 1.0 M NaOH aqueous solution (0.5 mL × 2). The cell lysate was transferred into a test tube. The radioactivity of ^77Br was measured by an auto well gamma counter at a 100–600 keV energy range. […] The BCA protein assay kit protocol was used to determine the protein concentration.

H1975 and H441 tumors = assay: Biodistribution of double tracers in tumor-bearing mice; format: in vivo, BALB/c nu/nu mice
Description: Six weeks old male ddY mice and four weeks old female BALB/c nu/nu mice were purchased from Japan SLC Inc. (Hamamatsu, Japan). Tumor-bearing mice were prepared by subcutaneous injection of cells suspended in 100 μL medium to the female BALB/c nu/nu mice. H1975 cells (5 × 10^6 cells) were implanted in the right shoulder, and H441 cells (3 × 10^6 cells) were implanted in the left shoulder. The tumor reached palpable size after post-inoculation 12 and 9 days for H1975 and H441, respectively.
(§1) One month later, ^125I activity was determined.

[3] = Biodistribution of double tracers in normal mice; format: in vivo; conditions: ddY mice
Description: as §1

H3255 (EGFR L858R) = assay: WST-8 cytotoxicity assay, H3255; format: cell-based; conditions: Homo sapiens, NCI-H3255
From the text: (§2) The data were statistically analyzed and presented as mean ± standard deviation (SD).

H1975 (EGFR L858R/T790M) = assay: WST-8 cytotoxicity assay, H1975; format: cell-based; conditions: Homo sapiens, NCI-H1975
From the text: as §2

H441 (wild-type EGFR) = assay: WST-8 cytotoxicity assay, H441; format: cell-based; conditions: Homo sapiens, NCI-H441
From the text: as §2

## C=CC(=O)Nc1cc([125I])cc(Nc2nc(Nc3ccc(N4CCN(C(C)=O)CC4)cc3OC)ncc2C(F)(F)F)c1 [[^125I]ICO1686]
[1]
  log P: 1.84 ± 0.01
[2]; 4 h of incubation
  accumulation in H1975 versus H3255 and H441: significantly higher
[2]; H1975
  reduction of uptake upon pretreatment with CO-1686: ~60%
[2]; H1975, 4 h, CO-1686 100 µM blocking
  accumulation of radioactivity with pretreatment with excess CO-1686: 67.7 % dose/mg protein
[2]; H1975, 4 h incubation
  accumulation of radioactivity (cell uptake): 151.3 % dose/mg protein
[2]; H1975, gefitinib 100 µM blocking
  effect of gefitinib on uptake: not significantly reduced
H1975 and H441 tumors; 1 h after i.v. injection
  Biodistribution, Blood: 0.50 % ID/g
  Biodistribution, Bone: 0.42 % ID/g
  Biodistribution, Brain: 0.04 % ID/g
  Biodistribution, H441 tumor: 0.44 % ID/g
  Biodistribution, H1975 tumor: 0.68 % ID/g
  Biodistribution, Heart: 0.61 % ID/g
  Biodistribution, Kidney: 2.64 % ID/g
  Biodistribution, Large intestine: 27.65 % ID/g
  Biodistribution, Liver: 30.32 % ID/g
  Biodistribution, Lung: 1.62 % ID/g
  Biodistribution, Muscle: 0.36 % ID/g
  Biodistribution, Pancreas: 2.71 % ID/g
  Biodistribution, Small intestine: 86.29 % ID/g
  Biodistribution, Spleen: 1.80 % ID/g
  Biodistribution, Stomach: 1.49 % ID/organ
H1975 and H441 tumors; 6 h after i.v. injection
  Biodistribution, Blood: 0.17 % ID/g
  Biodistribution, Bone: 0.22 % ID/g
  Biodistribution, Brain: 0.02 % ID/g
  Biodistribution, H441 tumor: 0.19 % ID/g
  Biodistribution, H1975 tumor: 0.10 % ID/g
  Biodistribution, Heart: 0.53 % ID/g
  Biodistribution, Kidney: 1.05 % ID/g
  Biodistribution, Large intestine: 95.22 % ID/g
  Biodistribution, Liver: 10.16 % ID/g
  Biodistribution, Lung: 0.37 % ID/g
  Biodistribution, Muscle: 0.10 % ID/g
  Biodistribution, Pancreas: 0.36 % ID/g
  Biodistribution, Small intestine: 11.72 % ID/g
  Biodistribution, Spleen: 0.25 % ID/g
  Biodistribution, Stomach: 1.17 % ID/organ
[3]; 10 min after i.v. injection
  Biodistribution, Blood: 1.41 % ID/g
  Biodistribution, Bone: 0.74 % ID/g
  Biodistribution, Brain: 0.08 % ID/g
  Biodistribution, Heart: 2.24 % ID/g
  Biodistribution, Kidney: 9.66 % ID/g
  Biodistribution, Large intestine: 0.94 % ID/g
  Biodistribution, Liver: 19.21 % ID/g
  Biodistribution, Lung: 3.61 % ID/g
  Biodistribution, Muscle: 1.20 % ID/g
  Biodistribution, Pancreas: 2.03 % ID/g
  Biodistribution, Small intestine: 36.32 % ID/g
  Biodistribution, Spleen: 2.73 % ID/g
  Biodistribution, Stomach: 2.60 % ID/organ
[3]; 1 h after i.v. injection
  Biodistribution, Blood: 0.17 % ID/g
  Biodistribution, Bone: 0.16 % ID/g
  Biodistribution, Brain: 0.01 % ID/g
  Biodistribution, Heart: 0.30 % ID/g
  Biodistribution, Kidney: 2.40 % ID/g
  Biodistribution, Large intestine: 1.65 % ID/g
  Biodistribution, Liver: 7.40 % ID/g
  Biodistribution, Lung: 0.59 % ID/g
  Biodistribution, Muscle: 0.23 % ID/g
  Biodistribution, Pancreas: 0.86 % ID/g
  Biodistribution, Small intestine: 40.99 % ID/g
  Biodistribution, Spleen: 0.55 % ID/g
  Biodistribution, Stomach: 1.64 % ID/organ
[3]; 4 h after i.v. injection
  Biodistribution, Blood: 0.06 % ID/g
  Biodistribution, Bone: 0.05 % ID/g
  Biodistribution, Brain: 0.01 % ID/g
  Biodistribution, Heart: 0.08 % ID/g
  Biodistribution, Kidney: 0.75 % ID/g
  Biodistribution, Large intestine: 81.54 % ID/g
  Biodistribution, Liver: 6.45 % ID/g
  Biodistribution, Lung: 0.16 % ID/g
  Biodistribution, Muscle: 0.04 % ID/g
  Biodistribution, Pancreas: 0.12 % ID/g
  Biodistribution, Small intestine: 6.08 % ID/g
  Biodistribution, Spleen: 0.20 % ID/g
  Biodistribution, Stomach: 0.76 % ID/organ
[3]; 24 h after i.v. injection
  Biodistribution, Blood: 0.13 % ID/g
  Biodistribution, Bone: 0.09 % ID/g
  Biodistribution, Feces: 71.54 % ID/organ
  Biodistribution, Heart: 0.20 % ID/g
  Biodistribution, Kidney: 0.54 % ID/g
  Biodistribution, Large intestine: 0.52 % ID/g
  Biodistribution, Liver: 1.40 % ID/g
  Biodistribution, Lung: 0.14 % ID/g
  Biodistribution, Muscle: 0.04 % ID/g
  Biodistribution, Pancreas: 0.05 % ID/g
  Biodistribution, Small intestine: 0.30 % ID/g
  Biodistribution, Spleen: 0.13 % ID/g
  Biodistribution, Stomach: 0.05 % ID/organ
  Biodistribution, Urine: 1.63 % ID/organ
[3]; 24 h postinjection
  eliminated in feces: up to 71%

## C=CC(=O)Nc1cc(Br)cc(Nc2nc(Nc3ccc(N4CCN(C(C)=O)CC4)cc3OC)ncc2C(F)(F)F)c1 [compound 9, N-(3-{[2-({4-[4-acetylpiperazin-1-yl]-2-methoxyphenyl}amino)-5-(trifluoromethyl)pyrimidin-4-yl]amino}-5-bromophenyl)acrylamide]
H3255 (EGFR L858R)
  IC50: 200 ± 10 nM
H1975 (EGFR L858R/T790M)
  IC50: 180 ± 60 nM
H441 (wild-type EGFR)
  IC50: 640 ± 40 nM
